Experimental data: paper PMC7371863, “Intracellular interplay between cholecystokinin and leptin signalling for satiety control in rats” (Scientific Reports, 2020)
Entries after “also recorded” stand apart in the source; their conditions may differ.

Columns and labels:
[1] = tested on: Zucker fa/fa rats lacking functional leptin receptors; conditions: cited from earlier work
Excerpt: (§1) Also, the effect of CCK on satiety control is attenuated in Zucker fa/fa rats lacking functional leptin receptors. In addition, other evidence implicated that leptin-mediated satiety-controlling systems may strongly interact with CCK systems[18],[50]–[54]. For example, c-Fos expression in oxytocin neurons in the hypothalamic paraventricular nucleus is elevated by leptin administration, and these neurons have axons tha ...

mice = conditions: sub-threshold CCK and leptin, individually no effect on feeding; cited from earlier work
Excerpt: as §1

rats = conditions: sub-threshold CCK and leptin, individually no effect on feeding; cited from earlier work
Excerpt: as §1

[2] = tested on: meal frequency / meal size; conditions: CCK; cited from earlier work
Excerpt: Although CCK and leptin have been commonly described as satiety controlling peptides, their differential roles have also been highlighted. […] Among the wide variety of intracellular signalling machineries linked to ObRb, it is still uncertain which pathway(s) is/are linked to what type of satiety controls. pSTAT3-ir is used as a genera ...

CCK-1 receptor = assay: Food access frequency after i.p. LGM following 1-h restricted feeding; assay type: in vivo, rat; conditions: LGM 10 mg/kg i.p., 3 h before re-feeding; n = 5–6 per group; p < 0.05
Protocol: Male rats aged 2–3 months were individually housed in originally designed cylindrical chambers (30 cm ϕ, H30 cm). Food was given ad libitum from slits of stainless pellet server placed 22 cm above the floor. During the RF, rats were fed with fatty food paste composed of 50% nutrient commixture chow powder, 20% soybean oil, and 30% water on a glass dish. Following removal of the dish, sterilized saline (1 ml/kg body weight) were i.p. injected. Leftover food paste was weighed after RF to calculate daily intake. Rats were acclimatized to this environment for 4 days. On day 5 of RF, saline or LGM (2 or 10 mg/kg body weight) dissolved in saline was injected. Three hours after the drug injection, rats were re-fed with regular chow in a previously setup pellet server. A touch sensing probe (Elekit PS-306) was connected to the pellet server. Because the bottom of the pellet server was placed 22 cm above the floor, purposeful food access behavior, but not general locomotor activities, was counted using this system. The ON/OFF signals from the sensor were fed into a laptop computer through a photo-coupler isolated digital I/O card (Contec Inc. PIO-16/16L) and automatically counted at 3-min intervals by software written by M.I.

[3] = tested on: c-Fos and pSTAT3 in the VMN; assay: Nuclear c-Fos and pSTAT3 in VMN after i.p. LGM; assay type: in vivo, rat; conditions: LGM 10 mg/kg i.p., 3 h, after RF, versus saline
Protocol: (§2) To investigate the cellular consequences underlying the above behavioral responses, the different groups of rats that received RF were killed 3-h after the LGM (10 mg/kg) or saline injections. Subsequently, nuclear pSTAT3-ir and c-Fos-ir were visualized in the […] by immunohistochemistry. An astrocyte marker (glial fibrillary acidic protein, GFAP) was counterstained as a landmark of ARC because ARC is the astrocyte-rich ventral neuronal nucleus (Fig. 8A). […]
(§3) Images were acquired using a confocal laser-scanning microscope (Olympus FV1000 or Nikon A1R MP plus) with a laser diode (405 nm), argon laser (488 nm), and helium neon laser ([…]). The nuclear immunofluorescent intensity (8-bit depth) was analyzed using Photoshop CS 6 software.
(§4) Male rats aged 2–3 months were individually housed in originally designed cylindrical chambers (30 cm ϕ, H30 cm). […] Because the bottom of the pellet server was placed 22 cm above the floor, purposeful food access behavior, but not general locomotor activities, was counted using this system. The ON/OFF signals from the sensor were fed into a laptop computer through a photo-coupler isolated digital I/O card (Contec Inc. PIO-16/16L) and automatically counted at 3-min intervals by software written by M.I.

[4] = tested on: c-Fos and pSTAT3 in the ARC; assay: Nuclear c-Fos and pSTAT3 in ARC after i.p. LGM; assay type: in vivo, rat; conditions: LGM 10 mg/kg i.p., 3 h, after RF, versus saline
Protocol: as §2, §3, §4

VMN cells = assay: Ca2+ imaging in rat VMN slices; assay type: cell-based; conditions: LGM 1 µM; leptin 1–1,000 nM; p < 0.01 two-way ANOVA
wild-type C6 cells = assay: Ca2+ imaging (Fura-2), leptin and CCK-8s signalling interaction in wild-type C6 cells; assay type: cell-based, rat
Protocol: (§5) Rat C6 glioma cells were cultured in Dulbecco’s Modified Eagle Medium/F12 (DMEM/F12) supplemented with 10% FBS, sodium bicarbonate (1.2 g/L), and 1% penicillin/streptomycin antibiotics at 37 °C in 5% CO2. The full-length mouse leptin receptor (ObRb) in pcDNA3.1 vector was kindly provided by Dr. Christian Bjørbaek (BIDMC, Harvard Medical School, Boston, MA, USA) and transfected using Lipofectamine 2000. Subsequently, the cells were cultured in medium containing 500 μg/mL G418 for cell selection.
C6 cells plated on 35 mm plastic dishes were gently rinsed with buffered salt solution (BSS) consisting of 130 mM NaCl, 5.4 mM KCl, 2 mM CaCl2, 1 mM MgCl2, 5.5 mM D-glucose, and 10 mM HEPES/NaOH (pH 7.4), and incubated in BSS supplemented with 6 µM Fura-2 AM (Dojindo Laboratories, Kumamoto, Japan) for 30 min in a CO2 incubator. Prior to photometry, the cells were rinsed again with BSS, incubated at 37°C for 15 min, and then continuously perfused with BSS at 34°C at a flow rate of 3 mL/min. Fluorescence images were obtained using an upright microscope (Axioplan2; Carl Zeiss, Thornwood, NY, USA) with a water-immersion objective (Achroplan×20 NA0.5w; Carl Zeiss). The wavelength of the excitation UV light (340 nm or 380 nm pulse; 250 msec) was switched using a filter wheel (Lambda 10-2; Sutter Instruments, Novato, CA, USA). The UV light was generated by a full spectrum 300W Xenon bulb (Lambda LS; Sutter Instruments), conducted to the microscope through a liquid light guide. The pair of fluorescent images was processed using a band-pass filter (485–515 nm) and exposed to a multiple format cooled CCD camera (CoolSnap-fx; Photometrics, Tucson, AZ, USA) at 6-sec intervals. The filter wheel and the CCD camera were controlled using digital imaging software (MetaFluor ver. 6.2; Japan Molecular Devices, Tokyo, Japan). The background fluorescence was also subtracted using the software.
During image acquisition, leptin (PeproTech, Rocky Hill, NJ, USA), CCK-4 (Peptide Institute, Inc., Osaka, Japan), CCK-8s (Sigma-Aldrich, St. Louis, MO, USA), AG490 (Calbiochem, San Diego, CA), LY294002 (Calbiochem), LY225910 (R&D Systems, Minneapolis, MN, USA), LGM (LKT Laboratories Inc., St. Paul, MN, USA), and ATP (Sigma-Aldrich) were applied by switching the perfusate. The magnitude of Ca^2+ responses was determined by peak area analysis using Origin 5.0 software (OriginLab, Northampton, MA, USA).

pSTAT3 in C6-ObRb cells = assay: Immunofluorescent staining of pSTAT3 in C6-ObRb cells; assay type: cell-based, rat C6 cells, mouse ObRb; conditions: for cytosolic pSTAT3 signal with kinase inhibitor: AG490 1 µM or LY294002 50 µM
Protocol: as §5
[…] Cells were treatment with AG490 (1 μM) or LY294002 (50 μM) 15 min prior to the leptin stimulation until the time of fixation. These cells were fixed in 4% phosphate-buffered paraformaldehyde for 15 min and washed three times with PBS(−). The fixed samples were then incubated for 2 h at room temperature in 10% donkey serum dissolved in 0.1% Triton-X PBS(−). Next, samples were incubated with 1:100 affinity-purified rabbit phospho-STAT3 (pTyr^705) dissolved in 5% donkey serum PBS(−) for 24 h at 4 °C. After three 20-min PBS(−) rinses, samples were incubated in 1:400 Cy3-conjugated donkey anti-rabbit IgG for 2 h at room temperature. Finally, samples were rinsed with PBS(−) (four 15-min rinses on an orbital shaker) and mounted using Vectashield containing 4′,6-diamidino-2-phenylindole (DAPI).
as §3

[5] = tested on: CCK-2 receptor (C6 cells); assay: Ca2+ imaging (Fura-2), CCK-2 antagonism added to LGM in C6 cells; assay type: cell-based, rat; conditions: LY225910 100 nM additional to LGM 100 nM; CCK-8s 10 nM; p < 0.01
Protocol: as §5
(§6) C6 cells plated on 35 mm plastic dishes were gently rinsed with buffered salt solution (BSS) consisting of 130 mM NaCl, 5.4 mM KCl, 2 mM CaCl2, 1 mM MgCl2, 5.5 mM D-glucose, and 10 mM HEPES/NaOH (pH 7.4), and incubated in BSS supplemented with 6 µM Fura-2 AM (Dojindo Laboratories, Kumamoto, Japan) for 30 min in a CO2 incubator. Prior to photometry, the cells were rinsed again with BSS, incubated at 37°C for 15 min, and then continuously perfused with BSS at 34°C at a flow rate of 3 mL/min. Fluorescence images were obtained using an upright microscope (Axioplan2; Carl Zeiss, Thornwood, NY, USA) with a water-immersion objective (Achroplan×20 NA0.5w; Carl Zeiss). The wavelength of the excitation UV light (340 nm or 380 nm pulse; 250 msec) was switched using a filter wheel (Lambda 10-2; Sutter Instruments, Novato, CA, USA). […] The background fluorescence was also subtracted using the software. […]

[6] = tested on: CCK-2 receptor (C6 cells); assay: Ca2+ imaging (Fura-2), CCK-2 receptor agonist response in C6 cells; assay type: cell-based, rat; conditions: CCK-4 100 nM; n = 35/three dishes; Fura-2, 34°C, BSS pH 7.4
Protocol: as §5, §6

cholecystokinin [CCK]
effect of CCK on satiety control in Zucker fa/fa rats [1]: attenuated | food intake, co-administration with leptin (mice): dramatically reduced food intake | food intake, co-administration with leptin (rats): dramatically reduced food intake | meal frequency [2]: reduce meal frequency

CCCCCN(CCCCC)C(=O)C(CCC(=O)O)NC(=O)c1ccc(Cl)c(Cl)c1 (stereo not shown) [LGM, lorglumide]
food access frequency at the onset of re-feeding relative to saline control (CCK-1 receptor): 1.8 times | number of cells displaying c-Fos-ir, VMN ([3]; 18 images in four rats, p < 0.05): significantly decreased the number of cells displaying c-Fos-ir | number of cells displaying pSTAT3-ir, VMN ([3]; P < 0.05): increased number of cells displaying pSTAT3-ir | number of cells displaying c-Fos-ir, ARC [4]: failed to modulate the number of cells displaying c-Fos-ir | number of cells displaying pSTAT3-ir, ARC ([4]; 14 images in four rats, p < 0.01): increased number of cells displaying pSTAT3-ir | effect of CCK-1 antagonist on leptin-induced Ca2+ responses (VMN cells): reduced leptin-induced Ca^2+ responses

O=c1cc(N2CCOCC2)oc2c(-c3ccccc3)cccc12 [LY294002]
effect of PI3K inhibitor on (leptin-amplified) CCK-8s-induced Ca2+ mobilization (wild-type C6 cells; LY294002 50 µM, 10 min, leptin pre-treatment, CCK-8s, n = 45/three dishes): significantly inhibited CCK-8s-induced Ca^2+ mobilization; also recorded: significantly reduced leptin action for CCK-8s-induced Ca^2+ mobilization | cytosolic pSTAT3 signal with kinase inhibitor (pSTAT3 in C6-ObRb cells): cytosolic pSTAT3 signal was not elevated | nuclear pSTAT3-ir with PI3K inhibitor (pSTAT3 in C6-ObRb cells; LY294002 50 µM from 15 min prior to leptin stimulation until fixation, 30 images/three dishes, p < 0.01): significantly reduced nuclear pSTAT3-ir below the level of un-stimulated controls; also recorded: blocked leptin-induced nuclear pSTAT3 elevation

N#C/C(=C/c1ccc(O)c(O)c1)C(=O)NCc1ccccc1 [AG490]
effect of JAK inhibitor on leptin amplification of CCK-8s-induced Ca2+ mobilization (wild-type C6 cells; AG490 1 μM, 10 min, leptin pre-treatment, CCK-8s, n = 48/three dishes): leptin failed to amplify the CCK-8s-induced Ca^2+ mobilization; also recorded: significantly reduced leptin action for CCK-8s-induced Ca^2+ mobilization | nuclear pSTAT3-ir with JAK inhibitor (pSTAT3 in C6-ObRb cells; AG490 1 µM from 15 min prior to leptin stimulation until fixation, 30 images/three dishes, p < 0.01): significantly reduced nuclear pSTAT3-ir below the level of un-stimulated controls; also recorded: blocked leptin-induced nuclear pSTAT3 elevation | cytosolic pSTAT3 signal with kinase inhibitor (pSTAT3 in C6-ObRb cells): cytosolic pSTAT3 signal was not elevated

CC(C)Oc1cccc(-n2c(CCc3c[nH]c4ccc(Br)cc34)nc3ccccc3c2=O)c1 [LY225910]
reduction of CCK-8s-induced Ca2+ transients [5]: almost completely reduced

Nc1ncnc2c1ncn2[C@@H]1O[C@H](COP(=O)(O)OP(=O)(O)OP(=O)(O)O)[C@@H](O)[C@H]1O [ATP]
Ca2+ mobilization, positive control (wild-type C6 cells; ATP 100 µM at the end of experiment): High Ca^2+ mobilization

CCK-4
C6 cells displaying Ca2+ transients [6]: approximately 20%
